Earlier results as cited in PMC8730323 (The Journal of organic chemistry, 2021).

Tests used:
HL-60 cell line = conditions: read-out: IC50 against HL-60 cell line; leukemia cells
NCL-H460 cell line = conditions: read-out: IC50 against human lung cancer NCL-H460 cell line

| IC50 (HL-60 cell line) | IC50 (NCL-H460 cell line) | Compound | Toxicity to normal cells compared with cancer cells (in words) (normal cells) |
| --- | --- | --- | --- |
| 3.2 µM |  | Cc1c(O)cc(C[C@]23C[C@H](C[C@H](C)O2)c2c4c(c(O)c(C)c2O3)CO[C@@]2(C4)C[C@@H](O)C[C@H](C)O2)c(C=O)c1O [(+)-1, (+)-peniciketal A] | less toxic |
|  | 20.2 µM | (−)-diocollettines A [(−)-5] |  |
